By inhibition is commonly meant the share of the control response that was lost under treatment.

The results in this text go back to patent US4916152A, “Pyrrolidine derivatives as antiasthmatics” (Fujisawa Pharmaceutical Co., Ltd., priority 1987, dated 1990).

Where a name gives a salt, the structure may show the parent alone.

The subject of assay [1] is 9,11-azo PGH2 induced aggregation of rabbit platelet. Put plainly: Effect on 9,11-azo PGH2 induced aggregation of rabbit platelet in vitro. It is filed as cell-based. The conditions noted are these: Oryctolagus cuniculus; rabbit platelet rich plasma, in vitro, 9,11-azo PGH2 (final 1.0 μM), 37° C.; read-out: IC50 (Inhibition concentration of platelet aggregation by 50%). An excerpt: (§1) In the following tests, the used 9, 11-azo PGH2 and 9,11-methanoepoxy PGH2 (U46619) are characterized pharmacologically as TXA2 mimetic agents and widely used for evaluating TXA2 antagonism of test compounds (for example, vide The Journal of Pharmacology and Experimental Therapeutics Vol. 234, pp 435-441).
Test 1 (Effect on 9,11-azo PGH2 induced aggregation of rabbit platelet in vitro) (a) Test method
In the in vitro experiments, the blood was collected from the carotid artery of rabbits into plastic vessels containing 0.1 volume of 3.8% aqueous sodium citrate. Platelet rich plasma (PRP) was prepared by centrifugation at 150 g for 15 minutes. Platelet aggregation was investigated using the turbidometric method with an aggregometer (NKK HEMATRACER 1). To the 225 μl of PRP, 25 μl of test compound solution was added, and then stirred at 1000 rpm for 2 minutes at 37° C. To the solution, 5 μl of 9,11-azo PGH2 (final 1.0 μM) was added as an aggregating inducer. IC50 (Inhibition concentration of platelet aggregation by 50%) were graphically determined.

The subject of assay [2] is 9,11-methanoepoxy PGH2 induced platelet aggregation. Put plainly: Effect on 9,11-methanoepoxy PGH2 (U46619) induced platelet aggregation ex vivo. It is filed as in vivo, male Hartley strain guinea-pigs. Conditions: Cavia porcellus, guinea-pig, oral administration 0.032 mg/kg, 1 hour before blood collection, U46619 0.5 μM.
Source text: as §1
Test 2. (Effect on 9,11-methanoepoxy PGH2 induced platelet aggregation ex vivo)
In the ex vivo experiments, male Hartley strain guinea-pigs weighing about 300 g were used after overnight fasting. Animals received an oral administration of test compound (0.032 mg/kg) or vehicle 1 hour before the blood collection from abdominal artery PRP was prepared as described above, and platelet aggregation was induced by adding 5 μl of 9,11-methanoepoxy PGH2 (U46619, 0.5 μM) to 250 μl of PRP.

For `O=C(O)CCC/C=C\[C@@H]1C[C@@H](NS(=O)(=O)c2ccc(Cl)cc2)CN1S(=O)(=O)c1ccc(Cl)cc1` [Test compound (2), (2S,4R)-2-[(Z)-5-Carboxy-1-pentenyl]-1-(4-chlorophenylsulfonyl)-4-(4-chlorophenylsulfonylamino)pyrrolidine], the IC50 in assay [1] came out at 55 nM. In addition, in assay [2], the inhibition at 0.032 mg/kg came out at 100%.

On to `O=C(O)CCCC=C[C@@H]1C[C@@H](NS(=O)(=O)c2ccc(Cl)cc2)CN1S(=O)(=O)c1ccc(Cl)cc1` [Test compound (1), Sodium salt of (2S,4R)-2-[(E and Z)-5-carboxy-1-pentenyl]-1-(4-chlorophenylsulfonyl)-4-(4-chlorophenylsulfonylamino)pyrrolidine], for which, in assay [1], the IC50 came out at 85 nM. This molecule registered an inhibition at 0.032 mg/kg in assay [2] of 94.2%.
